Laboratory results reported in ChEMBL document CHEMBL3885881, “DrugMatrix”.

Organism: Rattus norvegicus
Assay: DrugMatrix - Regimen: Daily Repeat
Type: toxicity, organism-based, Sprague-Dawley
Set-up: regimen Daily Repeat, gender Male, age 6-8 weeks
Conditions: in vivo, po, route oral GAVAGE, […]; for ABSOLUTE BASOPHIL / ABSOLUTE EOSINOPHIL / ABSOLUTE LYMPHOCYTE / ABSOLUTE MONOCYTE / ABSOLUTE SEGMENTED NEUTROPHIL / BASOPHIL / EOSINOPHIL / ERYTHROCYTE COUNT / HEMATOCRIT / HEMOGLOBIN / LEUKOCYTE COUNT / LYMPHOCYTE / MEAN CORPUSCULAR HEMOGLOBIN / MEAN CORPUSCULAR HEMOGLOBIN CONCENTRATION / MEAN CORPUSCULAR VOLUME / MONOCYTE / NEUTROPHIL / NUCLEATED RED BLOOD CELLS / PLATELET COUNT: tissue Blood; for ALANINE AMINOTRANSFERASE / ALBUMIN / ALKALINE PHOSPHATASE / ASPARTATE AMINOTRANSFERASE / BLOOD UREA NITROGEN / CARBON DIOXIDE / CHLORIDE / CHOLESTEROL / CREATINE PHOSPHOKINASE / CREATININE / GLUCOSE / LACTATE DEHYDROGENASE / LIPASE / PHOSPHORUS / POTASSIUM / SODIUM / TOTAL BILIRUBIN / TOTAL PROTEIN / URIC ACID: tissue Plasma
[1] = 25 mg/kg, 72 h, dose level Low, time 3 day
[2] = 25 mg/kg, 120 h, dose level Low, time 5 day
[3] = 100 mg/kg, 72 h, dose level High, time 3 day
[4] = 100 mg/kg, 120 h, dose level High, time 5 day

CN(C)CCCN1c2ccccc2Sc2ccccc21 [PROMAZINE]
ABSOLUTE BASOPHIL [1]: 0 CELLS/uL | ABSOLUTE EOSINOPHIL [1]: 145.33 CELLS/uL | ABSOLUTE LYMPHOCYTE [1]: 11142.33 CELLS/uL | ABSOLUTE MONOCYTE [1]: 92 CELLS/uL | ABSOLUTE SEGMENTED NEUTROPHIL [1]: 1153.67 CELLS/uL | BASOPHIL [1]: 0% | EOSINOPHIL [1]: 0.67% | ERYTHROCYTE COUNT [1]: 5.31 x10E6/uL | HEMATOCRIT [1]: 33.93% | HEMOGLOBIN [1]: 13.5 G/DL | LEUKOCYTE COUNT [1]: 12.53 x10E3/uL | LYMPHOCYTE [1]: 87.67% | MEAN CORPUSCULAR HEMOGLOBIN [1]: 25.47 pg | MEAN CORPUSCULAR HEMOGLOBIN CONCENTRATION [1]: 39.77 G/DL | MEAN CORPUSCULAR VOLUME [1]: 63.93 fL | MONOCYTE [1]: 1.33% | NEUTROPHIL [1]: 10.33% | NUCLEATED RED BLOOD CELLS [1]: 0.67 /100WBC | PLATELET COUNT [1]: 1124.33 x10E3/uL | ALANINE AMINOTRANSFERASE [1]: 95 u/L | ALBUMIN [1]: 4.03 G/DL | ALKALINE PHOSPHATASE [1]: 542.33 u/L | ASPARTATE AMINOTRANSFERASE [1]: 104 u/L | BLOOD UREA NITROGEN [1]: 14 mg/dL | CARBON DIOXIDE [1]: 32 mmol/L | CHLORIDE [1]: 101.67 MEQ/L | CHOLESTEROL [1]: 76.67 mg/dL | CREATINE PHOSPHOKINASE [1]: 359.33 u/L | CREATININE [1]: 0.17 mg/dL | GLUCOSE [1]: 185.67 mg/dL | LACTATE DEHYDROGENASE [1]: 147.67 u/L | LIPASE [1]: 9.33 u/L | PHOSPHORUS [1]: 12.17 mg/dL | POTASSIUM [1]: 6.17 MEQ/L | SODIUM [1]: 143.27 MEQ/L | TOTAL BILIRUBIN [1]: 0.17 mg/dL | TOTAL PROTEIN [1]: 5.57 G/DL | URIC ACID [1]: 1.23 mg/dL | ABSOLUTE BASOPHIL [2]: 0 CELLS/uL | ABSOLUTE EOSINOPHIL [2]: 84.33 CELLS/uL | ABSOLUTE LYMPHOCYTE [2]: 7389.33 CELLS/uL | ABSOLUTE MONOCYTE [2]: 65.33 CELLS/uL | ABSOLUTE SEGMENTED NEUTROPHIL [2]: 894.33 CELLS/uL | BASOPHIL [2]: 0% | EOSINOPHIL [2]: 1% | ERYTHROCYTE COUNT [2]: 5.37 x10E6/uL | HEMATOCRIT [2]: 34.2% | HEMOGLOBIN [2]: 13.47 G/DL | LEUKOCYTE COUNT [2]: 8.43 x10E3/uL | LYMPHOCYTE [2]: 88.67% | MEAN CORPUSCULAR HEMOGLOBIN [2]: 25.1 pg | MEAN CORPUSCULAR HEMOGLOBIN CONCENTRATION [2]: 39.4 G/DL | MEAN CORPUSCULAR VOLUME [2]: 63.67 fL | MONOCYTE [2]: 0.67% | NEUTROPHIL [2]: 9.67% | NUCLEATED RED BLOOD CELLS [2]: 0.33 /100WBC | PLATELET COUNT [2]: 1228.67 x10E3/uL | ALANINE AMINOTRANSFERASE [2]: 54.33 u/L | ALBUMIN [2]: 4.17 G/DL | ALKALINE PHOSPHATASE [2]: 463.67 u/L | ASPARTATE AMINOTRANSFERASE [2]: 73.33 u/L | BLOOD UREA NITROGEN [2]: 15 mg/dL | CARBON DIOXIDE [2]: 28.33 mmol/L | CHLORIDE [2]: 103.33 MEQ/L | CHOLESTEROL [2]: 61.67 mg/dL | CREATINE PHOSPHOKINASE [2]: 324.67 u/L | CREATININE [2]: 0.27 mg/dL | GLUCOSE [2]: 188.67 mg/dL | LACTATE DEHYDROGENASE [2]: 154 u/L | LIPASE [2]: 10.33 u/L | PHOSPHORUS [2]: 12.03 mg/dL | POTASSIUM [2]: 5.86 MEQ/L | SODIUM [2]: 145.6 MEQ/L | TOTAL BILIRUBIN [2]: 0.23 mg/dL | TOTAL PROTEIN [2]: 5.97 G/DL | URIC ACID [2]: 1.8 mg/dL | ABSOLUTE BASOPHIL [3]: 0 CELLS/uL | ABSOLUTE EOSINOPHIL [3]: 0 CELLS/uL | ABSOLUTE LYMPHOCYTE [3]: 15637.67 CELLS/uL | ABSOLUTE MONOCYTE [3]: 123 CELLS/uL | ABSOLUTE SEGMENTED NEUTROPHIL [3]: 572.67 CELLS/uL | BASOPHIL [3]: 0% | EOSINOPHIL [3]: 0% | ERYTHROCYTE COUNT [3]: 6.09 x10E6/uL | HEMATOCRIT [3]: 37.23% | HEMOGLOBIN [3]: 15.1 G/DL | LEUKOCYTE COUNT [3]: 16.33 x10E3/uL | LYMPHOCYTE [3]: 96% | MEAN CORPUSCULAR HEMOGLOBIN [3]: 24.83 pg | MEAN CORPUSCULAR HEMOGLOBIN CONCENTRATION [3]: 40.57 G/DL | MEAN CORPUSCULAR VOLUME [3]: 61.17 fL | MONOCYTE [3]: 0.67% | NEUTROPHIL [3]: 3.33% | NUCLEATED RED BLOOD CELLS [3]: 0 /100WBC | PLATELET COUNT [3]: 1276.67 x10E3/uL | ALANINE AMINOTRANSFERASE [3]: 60.33 u/L | ALBUMIN [3]: 4.43 G/DL | ALKALINE PHOSPHATASE [3]: 366.67 u/L | ASPARTATE AMINOTRANSFERASE [3]: 101.33 u/L | BLOOD UREA NITROGEN [3]: 17 mg/dL | CARBON DIOXIDE [3]: 28 mmol/L | CHLORIDE [3]: 101.67 MEQ/L | CHOLESTEROL [3]: 88 mg/dL | CREATINE PHOSPHOKINASE [3]: 986.67 u/L | CREATININE [3]: 0.37 mg/dL | GLUCOSE [3]: 131.67 mg/dL | LACTATE DEHYDROGENASE [3]: 335 u/L | LIPASE [3]: 12.67 u/L | PHOSPHORUS [3]: 11.5 mg/dL | POTASSIUM [3]: 6.17 MEQ/L | SODIUM [3]: 143.73 MEQ/L | TOTAL BILIRUBIN [3]: 0.23 mg/dL | TOTAL PROTEIN [3]: 6.1 G/DL | URIC ACID [3]: 1.2 mg/dL | ABSOLUTE BASOPHIL [4]: 0 CELLS/uL | ABSOLUTE EOSINOPHIL [4]: 74.67 CELLS/uL | ABSOLUTE LYMPHOCYTE [4]: 9603.33 CELLS/uL | ABSOLUTE MONOCYTE [4]: 53.33 CELLS/uL | ABSOLUTE SEGMENTED NEUTROPHIL [4]: 302 CELLS/uL | BASOPHIL [4]: 0% | EOSINOPHIL [4]: 0.67% | ERYTHROCYTE COUNT [4]: 5.25 x10E6/uL | HEMATOCRIT [4]: 32.53% | HEMOGLOBIN [4]: 13.13 G/DL | LEUKOCYTE COUNT [4]: 10.03 x10E3/uL | LYMPHOCYTE [4]: 95.67% | MEAN CORPUSCULAR HEMOGLOBIN [4]: 24.97 pg | MEAN CORPUSCULAR HEMOGLOBIN CONCENTRATION [4]: 40.37 G/DL | MEAN CORPUSCULAR VOLUME [4]: 61.93 fL | MONOCYTE [4]: 0.67% | NEUTROPHIL [4]: 3% | NUCLEATED RED BLOOD CELLS [4]: 0 /100WBC | PLATELET COUNT [4]: 1046.33 x10E3/uL | ALANINE AMINOTRANSFERASE [4]: 59.33 u/L | ALBUMIN [4]: 4.03 G/DL | ALKALINE PHOSPHATASE [4]: 341.67 u/L | ASPARTATE AMINOTRANSFERASE [4]: 113 u/L | BLOOD UREA NITROGEN [4]: 19 mg/dL | CARBON DIOXIDE [4]: 25.67 mmol/L | CHLORIDE [4]: 105 MEQ/L | CHOLESTEROL [4]: 57 mg/dL | CREATINE PHOSPHOKINASE [4]: 469 u/L | CREATININE [4]: 0.22 mg/dL | GLUCOSE [4]: 246.33 mg/dL | LACTATE DEHYDROGENASE [4]: 616 u/L | LIPASE [4]: 10.33 u/L | PHOSPHORUS [4]: 12.93 mg/dL | POTASSIUM [4]: 5.03 MEQ/L | SODIUM [4]: 147.63 MEQ/L | TOTAL BILIRUBIN [4]: 0.2 mg/dL | TOTAL PROTEIN [4]: 5.5 G/DL | URIC ACID [4]: 2.07 mg/dL
